{"source": "patent US7229621B2", "about": "“Method to enhance the immunogenicity of an antigen” (Torrey Pines Institute for Molecular Studies, priority 1998, dated 2007)", "key": {"[1]": {"tested_on": "Langerhans cells (immature dendritic cells)", "assay": "FITC screening assay: Langerhans/dendritic cell migration to draining inguinal lymph node after topical FITC in acetone plus migration inducer", "assay_type": "in vivo, C57BL/6 mice", "conditions": "for Amt. Antigen/DC (mean fluorescence intensity of the dendritic cells) / Total DC (FITC+ plus FITC- dendritic cells per lymph node) / Antigen^+ DC (FITC+ MHC class II^Hi cells per lymph node): FITC 5 mg/ml in 50:50 acetone and test agent; for Amt. Antigen/DC (mean fluorescence intensity of the dendritic cells) / Total DC (FITC+ plus FITC- dendritic cells per lymph node): 48 hrs later; for Antigen^+ DC (FITC+ MHC class II^Hi cells per lymph node): inguinal lymph nodes 48 hrs later; for effect on FITC+ and total dendritic cell migration into the lymph node: topical FITC in acetone plus agent on shaved abdominal skin, 2 days after treatment (FIG. 1)", "excerpt": "Fluorescein isothiocyanate (FITC) has been used extensively by the inventor and others, to characterize Langerhans cell migration. FITC is a small (389 Da) non-peptide, largely lipophilic molecule, capable of crossing the stratum corneum. The antigenicity of FITC is due to the reactivity of its isothiocyanate group (—N═C═S) with free amino groups, permitting it to be covalently bound to proteins and/or peptides. C57BL/6 mice received the following treatments: 1) none; 2) shaving of the abdominal skin only; or shaving of the abdominal skin followed by either 3) topical administration of FITC in acetone; 4) topical administration of FITC in acetone and olive oil; 5) topical administration of FITC in acetone and DMSO diluted in phosphate buffered saline (PBS); or 6) topical administration of FITC in acetone and dibutyl phthalate. The draining inguinal lymph nodes were then examined for immigrant dendritic cells by immunofluorescent flow cytometry each day thereafter. Migratory Langerhans cells were identified by the presence of FITC and co-expression of high MHC class II molecules or by co-expression of the DEC 205 ligand for the monoclonal antibody, NLDC-145. Dendritic cell residents of the lymph nodes could be differentiated by their high expression of MHC class II molecules but lack of FITC, or by their lack of FITC but co-expression of the ligand for the dendritic cell-specific monoclonal antibody, 33D1. The uptake of FITC and the Langerhans cell response to migratory signals were observable in the draining lymph node as early as six hours after topical administration. However, 48–72 hours was required for maximal immigration of FITC-bearing Langerhans cells into the lymph node. FIG. 1 illustrates the effect of various treatment regimens on the total and FITC+ dendritic cells 2 days after treatment. […] Thus, dibutyl phthalate was a very potent migration inducer.\nCompounds which are useful as inducers of immature dendritic cell migration may be screened using the standard FITC methods described for the data presented in FIGS. 1—3. C57BL6 mice are shaved on their abdomens and painted with 100–200 μl of the test solution, containing 5 mg/ml FITC in a 50/50 (v/v) mixture of acetone and the migration inducer (e.g. dibutyl phthalate). After 2 days, the draining inguinal lymph nodes are removed and the total number of dendritic cells (both FITC+ and FITC−) is determined by flow cytometry and MHC class II immunofluorescence or other markers specific for dendritic cells.\nThe antigen employed was FITC and the procedure was identical to that used for the experiments depicted in FIG. 1. Namely, FITC at 5 mg/ml was dissolved in a 50:50 solution of acetone and the test agents for migration induction. The test agents used in this experiment were: dibutylfumarate (Agent #1); diisooctylmaleate (Agent #2); and dibutyl-D-tartarate (Agent #3). The inguinal lymph nodes were examined 48 hrs later for the presence of FITC+ and FITC-dendritic cells as detailed previously.\nThe antigen used was FITC, which was applied topically to the shaved abdominal skin of C57BL/6 mice at 5 mg/ml in a 50:50 solution of dibutyl phthalate and acetone. Each of the applications was identical, with half of the mice in each group receiving the first application only (none) and half receiving the first application followed by a second application at the specified interval (14 days or 21 days) after the first application. The inguinal lymph node cells were examined by flow cytometry for FITC+ dendritic cells, as detailed previously, 48 hrs after each treatment."}, "E.G7-OVA tumor cells": {"tested_on": "E.G7-OVA tumor cells", "assay": "E.G7-OVA tumor growth after immunization with tumor antigen and migration inducer", "assay_type": "in vivo, C57BL/6 mice", "conditions": "50 μl of 1.25 mM OVA in HBSS injected, DBP in acetone topically an hour later; tumor inoculation one month later (FIG. 12)", "excerpt": "The tumor cell, E.G7-OVA, is the C57BL/6 EL4 thymoma transfected with the complete gene for chicken ovalbumin (OVA). The transfected cell line expresses OVA protein, which is also processed naturally by E.G7-OVA cells into an eight amino acid peptide, OVA257-264, with the sequence […]. […] Based on the positive results using FITC, the inventors followed a similar protocol in an attempt to induce immunity to the E.G7-OVA tumor by topical administration of the well-characterized, synthetic […] tumor-associated peptide.\nC57BL/6 mice were treated as follows: 1) shaving alone; 2) topical administration of acetone and dibutyl phthalate; 3) topical administration of […] (240 μg/ml) in DMSO diluted in PBS, followed in 5 hours by acetone and dibutyl phthalate; and 4) topical administration of […] (240 μg/ml) in acetone and dibutyl phthalate. All mice were subsequently injected subcutaneously with 5×10^5 E.G7-OVA cells (5-times the minimal tumorogenic dose). Tumor-specific immunity was monitored by measuring the size of the developing tumor.\nThe mucous membranes lack the tough barrier posed by the stratum corneum of the skin. […] The EL4 parent tumor cell line, lacking chicken ovalbumin, was used as a negative control; no immunity against the EL4 tumor cells was seen. Thus, the inventors' hypothesis regarding penetration of the stratum corneum was confirmed; the […] peptide was not effectively reaching the immature dendritic cells, known as Langerhans cells, underlying the stratum corneum.\nTo enhance the effectiveness of cutaneous topical administration of peptide, […] was dissolved in DMSO and applied to the skin without further dilution. Dibutyl phthalate in a 50:50 mixture with acetone was applied to the same site 5 hr later. All mice were subsequently injected subcutaneously with 5×10^5 E.G7-OVA cells. The results shown in FIG. 6 indicate that the peptide in concentrated DMSO was apparently able to traverse the stratum corneum, effectively gaining access to the epidermal Langerhans cells. […] Thus, the tumor-specific peptide, […], in concentrated DMSO, penetrated the stratum corneum in sufficient concentration to be incorporated into the MHC class I molecule K^b on epidermal Langerhans cells, and in the presence of the migration inducer, dibutyl phthalate, was effectively presented to CD8+ CTLs in the draining lymph nodes.\nTo confirm the immunogenicity of the disclosed treatment, groups of 10 C57BL/6 mice were injected with 50 μl of 1.25 mM OVA protein in HBSS, with HBSS alone, or with nothing. This was followed an hour later by topical application of DBP in acetone or with nothing. One month later, the mice were inoculated subcutaneously with 5×10^5 EL4 tumor cells or with 5×10^5 E.G7-OVA tumor cells and subsequent tumor growth was measured."}, "[2]": {"tested_on": "dendritic cells in draining lymph node", "assay": "Antigen-bearing dendritic cells in lymph nodes after injection of soluble protein or peptide with or without topical migration inducer", "assay_type": "in vivo, mice", "protocol": "The injections were followed 2 hours later by topical application of dibutyl phthalate and acetone to the abdominal skin. The antigen-bearing dendritic cells that had migrated to the draining lymph node two days later were analyzed as described above and are shown in the upper right quadrant of each dot plot.\nThis was followed 2 hrs later by: A) no further treatment, or B) topical application of dibutyl phthalate and acetone to the abdominal skin. The antigen-bearing dendritic cells that had migrated to the draining lymph node two days later are shown in the upper right quadrant of each dot plot.\nAs stated previously, whether mature antigen-bearing dendritic cells will be encountered by and activate naive T cells in the lymph node is likely to depend not only on the number of antigen-bearing dendritic cells that enter the node, but also on the density of MHC:peptide complexes expressed on their membranes."}, "[3]": {"tested_on": "dendritic cells in draining lymph node", "assay": "Antigen-bearing dendritic cells in lymph node after aqueous antigen applied to skin with DBP and acetone", "assay_type": "in vivo", "conditions": "aqueous solution applied to the skin with topical DBP and acetone (data not shown)", "excerpt": "Similarly, when an aqueous solution of a […] peptide or OVA protein antigen was applied to the skin along with topical application of the migration inducer, DBP and acetone, no detectable antigen-bearing (i.e., K^b:[…] positive) dendritic cells appeared in the draining lymph node (data not shown)."}, "[4]": {"conditions": "1st treatment day 1, 2nd none, assay day 16"}, "[5]": {"conditions": "1st treatment day 1, 2nd none, assay day 23"}, "[6]": {"conditions": "1st treatment day 1, 2nd treatment day 14, assay day 16"}, "[7]": {"conditions": "1st treatment day 1, 2nd treatment day 21, assay day 23"}, "[8]": {"conditions": "FITC 5 mg/ml in 50:50 dibutyl phthalate and acetone, 1st treatment day 1, 2nd none, assay day 2"}, "[9]": {"conditions": "20 μl of 0.5 mM in HBSS injected, dibutyl phthalate and acetone 2 hours later, two days later"}}}
{"molecule": "CC(C)CCCCCOC(=O)/C=C\\C(=O)OCCCCCC(C)C", "note": "[Test Agent #2, diisooctylmaleate]", "values": [{"measurement": "Amt. Antigen/DC (mean fluorescence intensity of the dendritic cells)", "setting": "[1]", "value": 1032, "unit": "arbitrary units"}, {"measurement": "Total DC (FITC+ plus FITC- dendritic cells per lymph node)", "setting": "[1]", "value": "7,927 cells per lymph node"}, {"measurement": "Antigen^+ DC (FITC+ MHC class II^Hi cells per lymph node)", "setting": "[1]", "value": "5,340 cells per lymph node"}]}
{"molecule": "C[S+](C)[O-]", "note": "[DMSO, dimethylsulfoxide]", "values": [{"measurement": "effect on FITC+ and total dendritic cell migration into the lymph node", "setting": "[1]", "value": "no enhancement"}]}
{"molecule": "CCCCOC(=O)[C@@H](O)[C@H](O)C(=O)OCCCC", "note": "[DBT, dibutyl-D-tartarate]", "values": [{"measurement": "Amt. Antigen/DC (mean fluorescence intensity of the dendritic cells)", "setting": "[1]", "value": 364, "unit": "arbitrary units"}, {"measurement": "Total DC (FITC+ plus FITC- dendritic cells per lymph node)", "setting": "[1]", "value": "29,050 cells per lymph node"}, {"measurement": "Antigen^+ DC (FITC+ MHC class II^Hi cells per lymph node)", "setting": "[1]", "value": "14,175 cells per lymph node"}]}
{"molecule": "CCCCOC(=O)c1ccccc1C(=O)OCCCC", "note": "[dibutyl phthalate]", "values": [{"measurement": "Antigen-bearing Dendritic Cells/Node", "setting": "[1]; [4]", "value": "1,776"}, {"measurement": "Cells per Lymph Node", "setting": "[1]; [4]", "value": "4.52 × 10^6"}, {"measurement": "Antigen-bearing Dendritic Cells/Node", "setting": "[1]; [5]", "value": 0}, {"measurement": "Cells per Lymph Node", "setting": "[1]; [5]", "value": "3.87 × 10^6"}, {"measurement": "Antigen-bearing Dendritic Cells/Node", "setting": "[1]; [6]", "value": "99,840"}, {"measurement": "Cells per Lymph Node", "setting": "[1]; [6]", "value": "1.28 × 10^7"}, {"measurement": "Antigen-bearing Dendritic Cells/Node", "setting": "[1]; [7]", "value": "49,203"}, {"measurement": "Cells per Lymph Node", "setting": "[1]; [7]", "value": "6.93 × 10^6"}, {"measurement": "Antigen-bearing Dendritic Cells/Node", "setting": "[1]; [8]", "value": "64,220"}, {"measurement": "Cells per Lymph Node", "setting": "[1]; [8]", "value": "6.76 × 10^6"}, {"measurement": "FITC+ Langerhans cells present in the lymph node", "setting": "[1]; by 12 hours after FITC in acetone and dibutyl phthalate (FIG. 2)", "value": "High numbers"}, {"measurement": "increase of lymph node cell population over baseline levels", "setting": "[1]; five days after topical FITC in acetone and dibutyl phthalate (FIG. 3)", "value": "approximately 7.2 fold"}, {"measurement": "effect on FITC+ and total dendritic cell migration into the lymph node", "setting": "[1]", "value": "striking effect"}]}
{"molecule": "CCCCOC(=O)/C=C/C(=O)OCCCC", "note": "[Test Agent #1, dibutylfumarate]", "values": [{"measurement": "Amt. Antigen/DC (mean fluorescence intensity of the dendritic cells)", "setting": "[1]", "value": 994, "unit": "arbitrary units"}, {"measurement": "Total DC (FITC+ plus FITC- dendritic cells per lymph node)", "setting": "[1]", "value": "10,088 cells per lymph node"}, {"measurement": "Antigen^+ DC (FITC+ MHC class II^Hi cells per lymph node)", "setting": "[1]", "value": "4,242 cells per lymph node"}]}
{"molecule": "OVA: Chicken ovalbumin, a 40 kDa protein used as prototypic experimental antigen (protein, UniProt P01012 2-386, looked up) Ovalbumin: GSIGAASMEFCFDVFKELKVHHANENIFYCPIAIMSALAMVYLGAKDSTRTQINKVVRFDKLPGFGDSIEAQCGTSVNVHSSLRDILNQITKPNDVYSFSLASRLYAEERYPILPEYLQCVKELYRGGLEPINFQTAADQARELINSWVESQTNGIIRNVLQPSSVDSQTAMVLVNAIVFKGLWEKAFKDEDTQAMPFRVTEQESKPVQMMYQIGLFRVASMASEKMKILELPFASGTMSMLVLLPDEVSGLEQLESIINFEKLTEWTSSNVMEERKIKVYLPRMKMEEKYNLTSVLMAMGITDVFSSSANLSGISSAESLKISQAVHAAHAEINEAGREVVGSAEAGVDAASVSEEFRADHPFLFCIKHIATNAVLFFGRCVSP", "values": [{"measurement": "tumor protection against E.G7-OVA", "setting": "E.G7-OVA tumor cells", "value": "tumor protection"}, {"measurement": "Total Cells per Lymph Node", "setting": "[2]; 20 μl of 0.5 mM in HBSS injected at two sites in abdominal skin, dibutyl phthalate and acetone topically 2 hours later, two days later", "value": "8.8 × 10^6"}, {"measurement": "Dendritic Cells per Lymph Node", "setting": "[2]; [9]", "value": "137,456"}, {"measurement": "K^b:SIINFEKL^+ DC per LymphNode", "setting": "[2]; [9]", "value": "61,424"}, {"measurement": "Enhancement", "setting": "[2]; K^b:SIINFEKL+ DC versus HBSS injection", "value": 31, "unit": "×"}, {"measurement": "increase in the number of antigen-bearing dendritic cells in the draining lymph nodes", "setting": "[2]; injection followed by topical induction of migration, two days later", "value": 31, "unit": "fold"}, {"measurement": "antigen-bearing (K^b:SIINFEKL positive) dendritic cells in the draining lymph node", "setting": "[3]", "value": "no detectable"}]}
